Assay results taken from US11786537B2 (priority 2022, dated 2023).
Entries after “also recorded” stand apart in the source; their conditions may differ.

Experiments:
VERO-E6 cells = experiment: MTT cytotoxicity assay (CC50); format: cell-based; settings: 24 h, in words
Protocol: To assess the half maximal cytotoxic concentration (CC50), stock solutions of the test compounds were prepared in 10% DMSO in ddH2O and diluted further to the working solutions with DMEM. The cytotoxic activity of the extracts was tested in VERO-E6 cells by using the 3-(4,5-dimethylthiazol-2-yl)-2,5-diphenyltetrazolium bromide (MTT) method with minor modifications. Briefly, the cells were seeded in 96 well-plates (100 μl/well at a density of 3×10^5 cells/ml) and incubated for 24 h at 37° C. in 5% CO2. After 24 h, cells were treated with various concentrations of the tested compounds in triplicates. 24 h later, the supernatant was discarded, and cell monolayers were washed with sterile 1× phosphate buffer saline (PBS) 3 times and MTT solution (20 μl of 5 mg/ml stock solution) was add to each well and incubated at 37° C. for 4 h followed by medium aspiration. In each well, the formed formazan crystals were dissolved with 200 μl of acidified isopropanol (0.04 M HCl in absolute isopropanol=0.073 ml HCL in 50 ml isopropanol). Absorbance of formazan solutions was measured at λ max 540 nm with 620 nm as a reference wavelength using a multi-well plate reader. […]

[1] = system: SARS-CoV-2 (hCoV-19/Egypt/NRC-03/2020); format: cell-based

Row | Substance | toxicity (VERO-E6 cells) | antiviral activity against SARS-CoV-2 [1] | inhibitory effect / viral inhibition [1]
1 | 4,4-bis[(dimethylamino)methoxy]-7,7′-dihexyl-10,10′-dimethyl-3,3′-bis(4-nitrophenyl)-8,8′-dioxo-4,4′-spirobi[5-oxa-2,7-diaza-3-azonia-4λ^6-cuprabicyclo[4.4.0]deca-1(6),2,9-triene]-9,9′-dicarbonitrile [Complex D1] | low toxicity | active antiviral activity; also recorded: significant antiviral activity | somewhat higher inhibitory effect compared to D2; also recorded: acceptable range of viral inhibition
2 | 7,7′-dihexyl-10,10′-dimethyl-8,8′-dioxo-3,3′-bis(p-tolyl)-4,4′-spirobi[5-oxa-2,7-diaza-3-azonia-4λ^4-cuprabicyclo[4.4.0]deca-1(6),2,9-triene]-9,9′-dicarbonitrile [Complex D2] | low toxicity | active antiviral activity; also recorded: significant antiviral activity | acceptable range of viral inhibition
